Measurements from patent US10131652B2, “Pyrimidinyloxy benzene derivatives as herbicides” (E. I. DU PONT DE NEMOURS AND COMPANY, priority 2014, dated 2018).

Columns and labels:
Format in all cases: in vivo
[1] = system: Italian ryegrass (Lolium multiflorum); assay: Test B pre-/postemergence plant response; details: for Ryegrass, Italian plant response rating: 0 to 100 scale (0 no effect, 100 complete control)
Source text: (§1) Seeds of plant species selected from bamyardgrass (Echinochloa crus-galli), kochia (Kochia scoparia), ragweed (common ragweed, Ambrosia elatior), Italian ryegrass (Lolium multiflorum), large (Lg) crabgrass (Digitaria sanguinalis), giant foxtail (Setaria faberii), momingglory (Ipomoea spp.), pigweed (Amaranthus retroflexus), velvetleaf (Abutilon theophrasti), wheat (Triticum aestivum), and corn (Zea mays) were planted into a blend of loam soil and sand and treated preemergence with a directed soil spray using test chemicals formulated in a non-phytotoxic solvent mixture which included a surfactant. At the same time, plants selected from these crop and weed species and also blackgrass (Alopecurus myosuroides), and galium (catchweed bedstraw, Galium aparine) were planted in pots containing the same blend of loam soil and sand and treated with postemergence applications of test chemicals formulated in the same manner. Plants ranged in height from 2 to 10 cm and were in the one- to two-leaf stage for the postemergence treatment. Treated plants and untreated controls were maintained in a greenhouse for approximately 10 days, after which time all treated plants were compared to untreated controls and visually evaluated for injury. Plant response ratings, summarized in Table B, are based on a 0 to 100 scale where 0 is no effect and 100 is complete control. A dash (-) response means no test result.

[2] = system: barnyardgrass (Echinochloa crus-galli); assay: Test B pre-/postemergence plant response; details: for Barnyardgrass plant response rating: 0 to 100 scale (0 no effect, 100 complete control)
Source text: as §1

[3] = system: corn (Zea mays); assay: Test B pre-/postemergence plant response; details: 0 to 100 scale, 0 no effect, 100 complete control
Source text: as §1

[4] = system: giant foxtail (Setaria faberii); assay: Test B pre-/postemergence plant response; details: for Foxtail, Giant plant response rating: 0 to 100 scale (0 no effect, 100 complete control)
Source text: as §1

[5] = system: kochia (Kochia scoparia); assay: Test B pre-/postemergence plant response; details: for Kochia plant response rating: 0 to 100 scale (0 no effect, 100 complete control)
Source text: as §1

[6] = system: pigweed (Amaranthus retroflexus); assay: Test B pre-/postemergence plant response; details: for Pigweed plant response rating: 0 to 100 scale (0 no effect, 100 complete control)
Source text: as §1

[7] = system: ragweed (common ragweed, Ambrosia elatior); assay: Test B pre-/postemergence plant response; details: for Ragweed plant response rating: 0 to 100 scale (0 no effect, 100 complete control)
Source text: as §1

[8] = system: wheat (Triticum aestivum); assay: Test B pre-/postemergence plant response; details: 0 to 100 scale, 0 no effect, 100 complete control
Source text: as §1

[9] = system: blackgrass (Alopecurus myosuroides); assay: Test B postemergence plant response; details: 0 to 100 scale, 0 no effect, 100 complete control
Procedure, shortened: (§2)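 Visual injury rating, 0–100 (0 = no effect, 100 = complete control), vs untreated controls ~10 days after postemergence spray; greenhouse; potted loam soil/sand; plants 2–10 cm, 1–2 leaf stage.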

[10] = system: galium (catchweed bedstraw, Galium aparine); assay: Test B postemergence plant response; details: 0 to 100 scale, 0 no effect, 100 complete control
Procedure, shortened: as §2

[11] = system: barnyardgrass (Echinochloa crus-galli); assay: Test C flooded paddy test plant response; details: Flood, 250 g ai/ha; scale of 0 to 100 where 0 is no effect and 100 is complete control; 13 to 15 days
Procedure: (§3) Plant species in the flooded paddy test selected from rice (Oryza sativa), small-flower umbrella sedge (Cyperus difformis), ducksalad (Heteranthera limosa), and bamyardgrass (Echinochloa crus-galli) were grown to the 2-leaf stage for testing. At time of treatment, test pots were flooded to 3 cm above the soil surface, treated by application of test compounds directly to the paddy water, and then maintained at that water depth for the duration of the test. Treated plants and controls were maintained in a greenhouse for 13 to 15 days, after which time all species were compared to controls and visually evaluated. Plant response ratings, summarized in Table C, are based on a scale of 0 to 100 where 0 is no effect and 100 is complete control. A dash (-) response means no test result.

[12] = system: ducksalad (Heteranthera limosa); assay: Test C flooded paddy test plant response; details: Flood, 250 g ai/ha; scale of 0 to 100 where 0 is no effect and 100 is complete control; 13 to 15 days
Procedure: as §3

[13] = system: rice (Oryza sativa); assay: Test C flooded paddy test plant response; details: Flood, 250 g ai/ha; scale of 0 to 100 where 0 is no effect and 100 is complete control; 13 to 15 days
Procedure: as §3

[14] = system: small-flower umbrella sedge (Cyperus difformis); assay: Test C flooded paddy test plant response; details: Flood, 250 g ai/ha; scale of 0 to 100 where 0 is no effect and 100 is complete control; 13 to 15 days
Procedure: as §3

[15] = 31 g ai/ha, Postemergence, 0 to 100 scale, 0 no effect, 100 complete control
[16] = 125 g ai/ha, postemergence, 0 to 100 scale, 0 no effect, 100 complete control
[17] = Preemergence, 125 g ai/ha, 0 to 100 scale where 0 is no effect and 100 is complete control

Compound	Plant response rating, Ryegrass, Italian [1, 15]	Plant response rating, Ryegrass, Italian [1, 16]	Ryegrass, Italian plant response rating ([1]; Preemergence, 31 g ai/ha)	Plant response rating, Ryegrass, Italian [1, 17]	Plant response rating, Barnyardgrass [2, 15]	Plant response rating, Barnyardgrass [2, 16]	Barnyardgrass plant response rating ([2]; Preemergence, 31 g ai/ha)	Plant response rating, Barnyardgrass [2, 17]	Plant response rating, Corn ([3]; 31 g ai/ha, Postemergence)	Plant response rating, Corn ([3]; 125 g ai/ha, postemergence)	Plant response rating, Foxtail, Giant [4, 15]	Plant response rating, Foxtail, Giant [4, 16]	Foxtail, Giant plant response rating ([4]; Preemergence, 31 g ai/ha)	Plant response rating, Foxtail, Giant [4, 17]	Plant response rating, Kochia [5, 15]	Plant response rating, Kochia [5, 16]	Kochia plant response rating ([5]; Preemergence, 31 g ai/ha)	Plant response rating, Kochia [5, 17]	Plant response rating, Pigweed [6, 15]	Plant response rating, Pigweed [6, 16]	further results
CC(C)n1nc(C(F)(F)F)cc1-c1c(C#N)cccc1Oc1ncc(Cl)cn1 [Compound 90]	0	0	0	0	0	0	0	0	0	0	0	0	0	0	0	10	0	0	0	10	Pigweed plant response rating ([6]; Preemergence, 31 g ai/ha): 0; Plant response rating, Pigweed [6, 17]: 20; Plant response rating, Ragweed [7, 15]: 0; Plant response rating, Ragweed [7, 16]: 0; Ragweed plant response rating ([7]; Preemergence, 31 g ai/ha): 0; Plant response rating, Ragweed [7, 17]: 0; Plant response rating, Wheat ([8]; 31 g ai/ha, Postemergence): 0; Plant response rating, Wheat ([8]; 125 g ai/ha, postemergence): 0; Plant response rating, Blackgrass ([9]; 31 g ai/ha, Postemergence): 0; Plant response rating, Blackgrass ([9]; 125 g ai/ha, postemergence): 0; Plant response rating, Galium ([10]; 31 g ai/ha, Postemergence): 0; Plant response rating, Galium ([10]; 125 g ai/ha, postemergence): 30; Barnyardgrass plant response rating [11]: 0; Ducksalad plant response rating [12]: 0; Rice plant response rating [13]: 0; Sedge, Umbrella plant response rating [14]: 0
Clc1cnc(Oc2ccccc2-c2cc(C(Cl)Cl)on2)nc1 [Compound 97]	0	0	0	0	0	20	0	0	0	20	0	30	10	30	60	90	0	30	60	90	Pigweed plant response rating ([6]; Preemergence, 31 g ai/ha): 20; Plant response rating, Pigweed [6, 17]: 50; Plant response rating, Ragweed [7, 15]: 20; Plant response rating, Ragweed [7, 16]: 50; Ragweed plant response rating ([7]; Preemergence, 31 g ai/ha): 0; Plant response rating, Ragweed [7, 17]: 0; Plant response rating, Wheat ([8]; 31 g ai/ha, Postemergence): 0; Plant response rating, Wheat ([8]; 125 g ai/ha, postemergence): 0; Plant response rating, Blackgrass ([9]; 31 g ai/ha, Postemergence): 0; Plant response rating, Blackgrass ([9]; 125 g ai/ha, postemergence): 0; Plant response rating, Galium ([10]; 31 g ai/ha, Postemergence): 10; Plant response rating, Galium ([10]; 125 g ai/ha, postemergence): 50; Barnyardgrass plant response rating [11]: 0; Ducksalad plant response rating [12]: 0; Rice plant response rating [13]: 0; Sedge, Umbrella plant response rating [14]: 50
